{"source": "patent US20120177606A1", "about": "“LACTIC ACID BACTERIUM FOR INHIBITING PRODUCTION OF GASTRIC ACID AND GASTRIN” (SNOWDEN KABUSHIKIKAISHA, priority 2011, published 2012)", "system": "gastrin production", "assay": "Side effects of continuous PPI administration (stomach weight ratio, gastrin-positive cells) and alleviation by lived No. 1088", "type": "in vivo", "settings": "PBS-administered mice, Omeprazole 200 μg subcutaneously every other day for 4 or 8 weeks, vs no PPI", "experimental": "Six groups of mice were prepared, each containing five 4-week old GF-Balb/c male mice. Three of the groups were administered orally with a suspension prepared by suspending 1×10^9 CFU of lived No. 1088 in PBS, and the remaining three groups were administered orally with an equal volume of PBS.\nWhen the mice reached 8 weeks of age, a treatment was started for one group of the No. 1088-administered mice and one group of the PBS-administered mice in which the mice were administered subcutaneously every other day with a solution prepared by dissolving 200 μg of the PPI Omeprazole (AstraZeneca Ltd.) in 200 μL of PBS (8 weeks of continuous PPI administration). […]\nUpon reaching 16 weeks of age, the mice of each group were killed, and following measurement of the bodyweight, the stomach was extracted from each mouse, the stomach contents (feed and the like) were removed by washing with PBS, and the stomach weight was measured. […]\nThe stained tissue sections were subjected to observation and image capture using a fluorescence microscope BZ-9000. […]\nUsing the bodyweights and stomach weights measured upon extraction of the stomachs from the samples of each group, the ratio (%) of stomach weight to bodyweight was calculated for each group. […]", "note": "“Also recorded” adds a separate entry of the source."}
{"smiles": "COc1ccc2[nH]c([S+]([O-])Cc3ncc(C)c(OC)c3C)nc2c1", "note": "(centres unmarked) [PPI, Omeprazole]", "values": [{"measurement": "number of gastrin-producing cells", "result": "increased; also recorded: significant increases"}, {"measurement": "stomach weight ratio (stomach weight to bodyweight)", "result": "significant increases"}]}
